# Measured values taken from patent US7309484B2, “Compositions and methods for screening antibacterial compounds” (priority 2003, dated 2007).
# Bridge positions count the residues as written; N and C are the ends. Square brackets hold non-standard residues; d marks the D form. Peptide text beside a SMILES is read from it. * marks the point of attachment. Ileψ(thiazoline)Cys = CC[C@H](C)[C@H](N)C1=N[C@H](C(=O)*)CS1; dOrn = NCCC[C@@H](N)C(=O)O
# Experiments:
# [1] = test system: liaI expression (pMUTIN-derived lacZ fusion, strain BFS2470); test: microbe, parasite or virus in culture; settings: Bacillus subtilis, 0.5 h, read-out: fold induction of liaI expression
# Description: Disc-diffusion assays were used to determine the spectrum of stimuli that induce the expression of liaIH. The B. subtilis strains BFS2469 and BFS2470 (Table 2), harboring pMUTIN-insertions in liaH and liaI respectively, were plated on a medium containing the indicator dye X-gal and overlaid with filter disks impregnated with various antibiotics that interfere with cell wall biosynthesis. Specifically, cultures of B. subtilis strain BFS2469 (liaH::pMUTIN) and BFS2470 (liaI::pMUTIN) were grown in LB medium to midlog phase, 2 mL for the un-induced control sample were harvested, and the remaining culture was induced with the three antibiotics for 30 minutes, before the cells of the induced sample were harvested. All samples were taken in duplicate from two independent cultures and the standard deviation is indicated by error bars.
# Measurement of induction by β-galactosidase assays: Cells were inoculated from fresh overnight LB-plates and grown in LB-medium at 37° C. with aeration until they reached an O.D.600=0.45. 2 mL of cultures were harvested (un-induced control) and the cell pellets were shock frozen and kept at −70° C. The cultures were induced by addition of antibiotics to a final concentration of: bacitracin (100 μg/mL), tunicamycin (50 μg/mL) or vancomycin (2 μg/mL) and incubated for additional 30 min at 37° C. 2 mL of the cultures were harvested as described above (induced sample). The pellets were re-suspended in 1 mL of working buffer and assayed for β-galactosidase activity as described with normalization to cell density (Miller, 1972, the entire teaching of which is incorporated herein by reference).
# For quantitative measurements of β-galactosidase activity, cells were inoculated from fresh overnight LB-plates and grown in LB medium at 37 YC with aeration until they reached an OD600 of 0.45. 2 ml of the culture was harvested (un-induced control) and the cell pellets were frozen and kept at −80 YC. The cultures were induced by addition of the compound to be tested to the final concentration as described in the individual figure legends and incubated for an additional 30 min at 37 YC. 2 ml of the cultures were harvested as described above. The pellets were re-suspended in 1 ml of working buffer (60 mM Na2HPO4, 40 mMNaH2PO4, 10 mM KCl, 1 mM MgSO4, 4 mM DTT) and assayed for β-galactosidase activity as described with normalization to cell density Kobayashi, K., et al., 2001, J Bacteriol 183:7365-7370). […] A sample was taken after 30 min for β-galactosidase assay and the turbidity of the remaining culture was measured for at least 5 hours to monitor the concentration-dependent effects of the antibiotics on cell growth.
# [2] = test system: B. subtilis strain BFS2470; test: Concentration-dependent induction/killing experiments; assay type: cell-based, Bacillus subtilis
# Description: Concentration-dependent induction/killing experiments were performed for bacitracin, nisin, ramoplanin and vancomycin as shown in FIG. 7. In all four cases the induction of liaI occurred in a concentration-dependent manner (FIG. 7a), reaching a maximum at an antibiotic concentration of about 10 μg/ml (1 μg/mL for vancomycin). The time of antibiotic addition is indicated by an arrow. The antibiotic concentrations affecting the induction of PliaI according to the β3-galactosidase assay are indicated by white symbols. The corresponding concentrations are: bacitracin ([…]), nisin (50, 70 and 100 μg/ml), ramoplanin (20, 50 and 100 μg/mL) and vancomycin (5, 10, 50 and 100 μg/mL).
# This finding correlates well with the bactericidal effects of these antibiotics as inferred from the dramatic decrease of optical density: there is little effect of bacitracin and vancomycin on cell growth during the first 30-60 min after addition even at high concentrations (FIG. 7b).
# The cultures were incubated with aeration at 37° C.
structure (smiles),measurement,setting,value
CC[C@H](C)[C@H](N)C1=N[C@H](C(=O)N[C@@H](CC(C)C)C(=O)N[C@H](CCC(=O)O)C(=O)N[C@H](C(=O)N[C@H]2CCCCNC(=O)[C@H](CC(N)=O)NC(=O)[C@@H](CC(=O)O)NC(=O)[C@H](Cc3cnc[nH]3)NC(=O)[C@@H](Cc3ccccc3)NC(=O)[C@H]([C@@H](C)CC)NC(=O)[C@@H](CCCN)NC2=O)[C@@H](C)CC)CS1 [Bacitracin] ({Ileψ(thiazoline)Cys}-L[dE]IK[dOrn]I[dF]H[dD]N; lactam 4-C),fold induction at 100 µg/mL,[1],> 500
same,lacZ-expression at higher concentration,"[2]; FIG. 7a, in words",remained elevated
same,effect on cell growth / optical density,"[2]; high concentrations, FIG. 7b, in words",little effect
same,antibiotic concentration at maximum induction of liaI,"[2]; β-galactosidase assay after 30 min, 0.01 to 100 μg/ml tested",about 10 μg/ml
